Data set [1] is described as follows: Urea nitrogen (BUN) value in blood plasma 6 days after single caudate vein administration to normal mice (index for nephrotoxicity). The note with it: normal mouse, 6 days after single administration, ratio to non-treated group.
Description: (§1) In FIG. 5, calculated were duration integrations (up to 17 days since drug treatment) of relative values in a change in a tumor volume and a weight change on a zero day, and the ratios of the drug-treated group to the drug-non-treat group in the values were shown as an antitumor effect and a weight change respectively. Further, the drug was administered once from a caudate vein to a normal C57BL6/N mouse (n=4, male, 6 ages in week) to evaluate a urea nitrogen (BUN) value in blood plasma after 6 days. […] The ratio of the drug-treated group to the drug-non-treat group in this BUN value was calculated as well, and the relative BUN value to the CDDP-equivalent dosage was shown in FIG. 5(C).
The next data set has as its system Louis pulmonary cancer. Put plainly: Antitumor effect and weight change after single caudate vein administration to mice with subcutaneously transplanted Louis pulmonary cancer.
Data set [2] can be described thus: Blood plasma platinum concentration and accumulation of platinum in tumor and principal organs after caudate vein administration to tumor-bearing mice.
Description: Evaluated were a change in a blood plasma platinum concentration and a change with the passage of time in accumulation of platinum in the principal organs observed when free CDDP and the CDDP-encapsulating micelle were administered from a caudate vein to a C57BL6/N mouse (n=4, male, 6 ages in week) in which Louis pulmonary cancer was subcutaneously transplanted to a hypogastric region, and the results thereof are shown in FIG. 4.
Setting [3] is: 0–24 hours, tissue platinum concentration-time curve.

“And” between values parts separate entries of the source, which are not always exact repeats. Equal entries are not always repeated.

Description for Louis pulmonary cancer: as §1

With cis-Diaminedichloroplatinum (II) [CDDP], the “relative BUN value” in data set [1] was “rise in the BUN value”. The toxic death result in the data set with Louis pulmonary cancer (12 mg/kg) is recorded as “one mouse out of 3 mice”. In addition, the weight change result in the data set with Louis pulmonary cancer (mouse, in vivo) is reported as “reduction in the weight”. The antitumor effect entry in the data set with Louis pulmonary cancer (single caudate vein administration, tumor volume integration up to 17 days, ratio to non-treated group) is on record as “increase in the antitumor effect”. In addition, in data set [2] (setting [3]), the “Kidney AUC/tumor AUC” value was 3.9 and 7.7; the “Liver AUC/tumor AUC” value was 2.6 and 2.7; the “Muscle AUC/tumor AUC” value is 0.13 and 0.17; the “Spleen AUC/tumor AUC” value is 0.31 and 0.43. Also, the “accumulation of platinum in a kidney” value in data set [2] (immediately after administration (about 15 minutes)) is listed as “high accumulation immediately after administration”.

The record behind these values is patent publication US7125546B2, “Polymeric micelle containing cisplatin enclosed therein and use thereof” (Toudai TLO, Ltd., priority 2000, dated 2006).
